{
  "source": "PubChem BioAssay AID1963986",
  "about": "(Molecular Pharmacology Branch, DTP, NCI, 2024)",
  "system": "171881-019-R-J1-PDC tumor spheroid viability",
  "assay": "Anticancer human tumor 171881-019-R-J1-PDC patient-derived invasive breast carcinoma cell line growth inhibition [PI3K]",
  "conditions": "spheroids with HUVEC and MSC; for pIC50: curve of first compound; for viability, T/C: stronger effect = lower value",
  "in_short": "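We assembled tumor spheroids that included a stromal compartment of HUVEC and MSCs, then exposed them to targeted agents alone and together with PI3K pathway inhibitors. Concentration series descended by half-log from clinically achievable Cmax levels. Viability served as the endpoint.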",
  "note": "pIC50: −log10 of the molar value.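 Note: spheroids exposed to compound for 7 days before viability read.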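 Throughout, for viability, T/C: 100% = DMSO vehicle-treated spheroids.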",
  "data": [
    {"smiles": "CNC(=O)c1ccc(N2C(=S)N(c3ccc(C#N)c(C(F)(F)F)c3)C(=O)C2(C)C)cc1F", "note": "+ CC(Nc1ncnc2nc[nH]c12)c1cc2cccc(Cl)c2c(=O)n1-c1ccccc1", "values": [
      {"measurement": "pIC50", "setting": "second compound 0.0316 µM", "result": "< 5.00"},
      {"measurement": "pIC50", "setting": "second compound 0.1 µM", "result": "< 5.00"},
      {"measurement": "pIC50", "setting": "second compound 0.316 µM", "result": "< 5.00"},
      {"measurement": "pIC50", "setting": "second compound 1 µM", "result": "< 5.00"},
      {"measurement": "pIC50", "setting": "second compound 3.16 µM", "result": "< 5.00"},
      {"measurement": "pIC50", "setting": "second compound 10 µM", "result": 5.31},
      {"measurement": "viability, T/C", "setting": "second compound 0.0316 µM, first compound 0.0316 µM", "result": 91.6, "unit": "%"},
      {"measurement": "viability, T/C", "setting": "second compound 0.0316 µM, first compound 0.1 µM", "result": 78.6, "unit": "%"},
      {"measurement": "viability, T/C", "setting": "second compound 0.0316 µM, first compound 0.316 µM", "result": 80.1, "unit": "%"},
      {"measurement": "viability, T/C", "setting": "second compound 0.0316 µM, first compound 1 µM", "result": 86.4, "unit": "%"},
      {"measurement": "viability, T/C", "setting": "second compound 0.0316 µM, first compound 3.16 µM", "result": 86.1, "unit": "%"},
      {"measurement": "viability, T/C", "setting": "second compound 0.0316 µM, first compound 10 µM", "result": 71.2, "unit": "%"},
      {"measurement": "viability, T/C", "setting": "second compound 0.1 µM, first compound 0.0316 µM", "result": 88.8, "unit": "%"},
      {"measurement": "viability, T/C", "setting": "second compound 0.1 µM, first compound 0.1 µM", "result": 85.9, "unit": "%"},
      {"measurement": "viability, T/C", "setting": "second compound 0.1 µM, first compound 0.316 µM", "result": 78.5, "unit": "%"},
      {"measurement": "viability, T/C", "setting": "second compound 0.1 µM, first compound 1 µM", "result": 85.6, "unit": "%"},
      {"measurement": "viability, T/C", "setting": "second compound 0.1 µM, first compound 3.16 µM", "result": 83.3, "unit": "%"},
      {"measurement": "viability, T/C", "setting": "second compound 0.1 µM, first compound 10 µM", "result": 69.8, "unit": "%"},
      {"measurement": "viability, T/C", "setting": "second compound 0.316 µM, first compound 0.0316 µM", "result": 92.1, "unit": "%"},
      {"measurement": "viability, T/C", "setting": "second compound 0.316 µM, first compound 0.1 µM", "result": 93.3, "unit": "%"},
      {"measurement": "viability, T/C", "setting": "second compound 0.316 µM, first compound 0.316 µM", "result": 85.3, "unit": "%"},
      {"measurement": "viability, T/C", "setting": "second compound 0.316 µM, first compound 1 µM", "result": 92.4, "unit": "%"},
      {"measurement": "viability, T/C", "setting": "second compound 0.316 µM, first compound 3.16 µM", "result": 77, "unit": "%"},
      {"measurement": "viability, T/C", "setting": "second compound 0.316 µM, first compound 10 µM", "result": 69.9, "unit": "%"},
      {"measurement": "viability, T/C", "setting": "second compound 1 µM, first compound 0.0316 µM", "result": 89.9, "unit": "%"},
      {"measurement": "viability, T/C", "setting": "second compound 1 µM, first compound 0.1 µM", "result": 100, "unit": "%"},
      {"measurement": "viability, T/C", "setting": "second compound 1 µM, first compound 0.316 µM", "result": 85.2, "unit": "%"},
      {"measurement": "viability, T/C", "setting": "second compound 1 µM, first compound 1 µM", "result": 86.9, "unit": "%"},
      {"measurement": "viability, T/C", "setting": "second compound 1 µM, first compound 3.16 µM", "result": 93.1, "unit": "%"},
      {"measurement": "viability, T/C", "setting": "second compound 1 µM, first compound 10 µM", "result": 70.7, "unit": "%"},
      {"measurement": "viability, T/C", "setting": "second compound 3.16 µM, first compound 0.0316 µM", "result": 87.2, "unit": "%"},
      {"measurement": "viability, T/C", "setting": "second compound 3.16 µM, first compound 0.1 µM", "result": 85.9, "unit": "%"},
      {"measurement": "viability, T/C", "setting": "second compound 3.16 µM, first compound 0.316 µM", "result": 83.7, "unit": "%"},
      {"measurement": "viability, T/C", "setting": "second compound 3.16 µM, first compound 1 µM", "result": 80.1, "unit": "%"},
      {"measurement": "viability, T/C", "setting": "second compound 3.16 µM, first compound 3.16 µM", "result": 80.9, "unit": "%"},
      {"measurement": "viability, T/C", "setting": "second compound 3.16 µM, first compound 10 µM", "result": 64.5, "unit": "%"},
      {"measurement": "viability, T/C", "setting": "second compound 10 µM, first compound 0.0316 µM", "result": 61.4, "unit": "%"},
      {"measurement": "viability, T/C", "setting": "second compound 10 µM, first compound 0.1 µM", "result": 58.2, "unit": "%"},
      {"measurement": "viability, T/C", "setting": "second compound 10 µM, first compound 0.316 µM", "result": 60.4, "unit": "%"},
      {"measurement": "viability, T/C", "setting": "second compound 10 µM, first compound 1 µM", "result": 57.2, "unit": "%"},
      {"measurement": "viability, T/C", "setting": "second compound 10 µM, first compound 3.16 µM", "result": 54, "unit": "%"},
      {"measurement": "viability, T/C", "setting": "second compound 10 µM, first compound 10 µM", "result": 43.7, "unit": "%"}
    ]},
    {"smiles": "Cn1cnc2c(F)c(Nc3ccc(Br)cc3Cl)c(C(=O)NOCCO)cc21", "note": "+ CC(Nc1ncnc2nc[nH]c12)c1cc2cccc(Cl)c2c(=O)n1-c1ccccc1", "values": [
      {"measurement": "pIC50", "setting": "second compound 0.0316 µM", "result": 6.20},
      {"measurement": "pIC50", "setting": "second compound 0.1 µM", "result": 6.18},
      {"measurement": "pIC50", "setting": "second compound 0.316 µM", "result": 6.26},
      {"measurement": "pIC50", "setting": "second compound 1 µM", "result": 6.37},
      {"measurement": "pIC50", "setting": "second compound 3.16 µM", "result": 6.84},
      {"measurement": "pIC50", "setting": "second compound 10 µM", "result": "> 8.02"},
      {"measurement": "viability, T/C", "setting": "second compound 0.0316 µM, first compound 0.00949 µM", "result": 93.5, "unit": "%"},
      {"measurement": "viability, T/C", "setting": "second compound 0.0316 µM, first compound 0.03 µM", "result": 84, "unit": "%"},
      {"measurement": "viability, T/C", "setting": "second compound 0.0316 µM, first compound 0.0949 µM", "result": 89.2, "unit": "%"},
      {"measurement": "viability, T/C", "setting": "second compound 0.0316 µM, first compound 0.3 µM", "result": 63.5, "unit": "%"},
      {"measurement": "viability, T/C", "setting": "second compound 0.0316 µM, first compound 0.949 µM", "result": 42.2, "unit": "%"},
      {"measurement": "viability, T/C", "setting": "second compound 0.0316 µM, first compound 3 µM", "result": 19.5, "unit": "%"},
      {"measurement": "viability, T/C", "setting": "second compound 0.1 µM, first compound 0.00949 µM", "result": 87.3, "unit": "%"},
      {"measurement": "viability, T/C", "setting": "second compound 0.1 µM, first compound 0.03 µM", "result": 84.7, "unit": "%"},
      {"measurement": "viability, T/C", "setting": "second compound 0.1 µM, first compound 0.0949 µM", "result": 75, "unit": "%"},
      {"measurement": "viability, T/C", "setting": "second compound 0.1 µM, first compound 0.3 µM", "result": 70.8, "unit": "%"},
      {"measurement": "viability, T/C", "setting": "second compound 0.1 µM, first compound 0.949 µM", "result": 40.7, "unit": "%"},
      {"measurement": "viability, T/C", "setting": "second compound 0.1 µM, first compound 3 µM", "result": 18.3, "unit": "%"},
      {"measurement": "viability, T/C", "setting": "second compound 0.316 µM, first compound 0.00949 µM", "result": 96.6, "unit": "%"},
      {"measurement": "viability, T/C", "setting": "second compound 0.316 µM, first compound 0.03 µM", "result": 91, "unit": "%"},
      {"measurement": "viability, T/C", "setting": "second compound 0.316 µM, first compound 0.0949 µM", "result": 77.2, "unit": "%"},
      {"measurement": "viability, T/C", "setting": "second compound 0.316 µM, first compound 0.3 µM", "result": 63.2, "unit": "%"},
      {"measurement": "viability, T/C", "setting": "second compound 0.316 µM, first compound 0.949 µM", "result": 38.6, "unit": "%"},
      {"measurement": "viability, T/C", "setting": "second compound 0.316 µM, first compound 3 µM", "result": 17.5, "unit": "%"},
      {"measurement": "viability, T/C", "setting": "second compound 1 µM, first compound 0.00949 µM", "result": 88.9, "unit": "%"},
      {"measurement": "viability, T/C", "setting": "second compound 1 µM, first compound 0.03 µM", "result": 74.4, "unit": "%"},
      {"measurement": "viability, T/C", "setting": "second compound 1 µM, first compound 0.0949 µM", "result": 71.8, "unit": "%"},
      {"measurement": "viability, T/C", "setting": "second compound 1 µM, first compound 0.3 µM", "result": 57.9, "unit": "%"},
      {"measurement": "viability, T/C", "setting": "second compound 1 µM, first compound 0.949 µM", "result": 34.6, "unit": "%"},
      {"measurement": "viability, T/C", "setting": "second compound 1 µM, first compound 3 µM", "result": 15.4, "unit": "%"},
      {"measurement": "viability, T/C", "setting": "second compound 3.16 µM, first compound 0.00949 µM", "result": 74.4, "unit": "%"},
      {"measurement": "viability, T/C", "setting": "second compound 3.16 µM, first compound 0.03 µM", "result": 65.3, "unit": "%"},
      {"measurement": "viability, T/C", "setting": "second compound 3.16 µM, first compound 0.0949 µM", "result": 55.9, "unit": "%"},
      {"measurement": "viability, T/C", "setting": "second compound 3.16 µM, first compound 0.3 µM", "result": 40.5, "unit": "%"},
      {"measurement": "viability, T/C", "setting": "second compound 3.16 µM, first compound 0.949 µM", "result": 25.8, "unit": "%"},
      {"measurement": "viability, T/C", "setting": "second compound 3.16 µM, first compound 3 µM", "result": 9.87, "unit": "%"},
      {"measurement": "viability, T/C", "setting": "second compound 10 µM, first compound 0.00949 µM", "result": 46.2, "unit": "%"},
      {"measurement": "viability, T/C", "setting": "second compound 10 µM, first compound 0.03 µM", "result": 44.2, "unit": "%"},
      {"measurement": "viability, T/C", "setting": "second compound 10 µM, first compound 0.0949 µM", "result": 37.8, "unit": "%"},
      {"measurement": "viability, T/C", "setting": "second compound 10 µM, first compound 0.3 µM", "result": 31.2, "unit": "%"},
      {"measurement": "viability, T/C", "setting": "second compound 10 µM, first compound 0.949 µM", "result": 14.9, "unit": "%"},
      {"measurement": "viability, T/C", "setting": "second compound 10 µM, first compound 3 µM", "result": 4.91, "unit": "%"}
    ]}
  ]
}
